Experimental data taken from patent US8568814B2, “Lanthionine derivatives” (Ajinomoto Co., Inc., priority 2009, dated 2013).

What was measured:
panelists [1] = assay: Quantitative organoleptic evaluation of kokumi-imparting activity in cow's milk; type: in vivo, human; details: for Intensity of Kokumi After Taste / Intensity of Kokumi Initial-Middle Taste: score scale -5 to +5, n=5
Experimental: The quantitative organoleptic evaluation test was carried out according to the following procedures: The intensity of the kokumi-imparting activity of the test compound was determined using a mixture obtained by adding, to the commercially available cow's milk (fat content: 3.6%), […] The pH value of the samples used was adjusted to that of the control free of any test compound (i.e., the pH value of the latter +0.2). […] The scoring was carried out using the linear-scale technique, in which each corresponding score was plotted on a straight line on which the scores equal to −5, 0 and +5 had been expressly specified. […] In this respect, the term “initial-middle taste” means the taste detected during the term ranging from 0 to 5 seconds after keeping each sample in each panelist's mouth and the term “after taste” means that detected thereafter.

panelists [2] = assay: Quantitative organoleptic evaluation of kokumi-imparting activity in umami/salty solution; type: in vivo, human; details: for Intensity of Kokumi After Taste / Intensity of Kokumi Initial-Middle Taste: score scale -5 to +5, n=5
Experimental: The scoring was carried out using the linear-scale technique, in which each corresponding score was plotted on a straight line on which the scores equal to −5, 0 and +5 had been expressly specified. In addition, persons selected as panelists in these evaluation tests were persons who had been engaged in the development of a seasoning over a cumulative period of at least a half year, and who could so judge that the difference between γ-Glu-Cys-Gly and γ-Glu-Val-Gly, each of which was added to a solution having umami and salty taste, was about 10 times (this ability was confirmed at regular intervals). In this respect, the term “initial-middle taste” means the taste detected from 0 to 5 seconds after placing and maintaining each sample in each panelist's mouth, and the term “after taste” means that detected thereafter.

panelists [3] = assay: Quantitative organoleptic evaluation of kokumi-imparting activity in dried-bonito extract; type: in vivo, human; details: for Intensity of Kokumi After Taste / Intensity of Kokumi Initial-Middle Taste: score scale -5 to +5, n=5
Experimental: The pH value of the samples used was adjusted to that of the control free of any test compound (i.e., the pH value of the latter +0.2). […] The scoring was carried out using the linear-scale technique, in which each corresponding score was plotted on a straight line on which the scores equal to −5, 0 and +5 had been expressly specified. […] In this respect, the term “initial-middle taste” means the taste detected from 0 to 5 seconds after placing and maintaining each sample in each panelist's mouth, and the term “after taste” means that detected thereafter.

human CaSR [4] = biological target: T1, human CaSR (Homo sapiens, UniProt P41180, E1011Q); assay: Evaluation (1) and (2) of CaSR agonist activity (Ca2+ fluorescence in transfected 293E cells); type: cell-based; details: 293E cells transfected with hCaSR/pcDNA3.1; Calcium 4/5 Assay Kit; methods (1) and (2)
T1 construct: expressed in transfected cells; host or cells: 293E cells (EBNA1-expression HEK293 cells, ATCC No. CRL-10852), transient transfection of hCaSR/pcDNA3.1
T1 sequence (P41180 20-1078 E1011Q): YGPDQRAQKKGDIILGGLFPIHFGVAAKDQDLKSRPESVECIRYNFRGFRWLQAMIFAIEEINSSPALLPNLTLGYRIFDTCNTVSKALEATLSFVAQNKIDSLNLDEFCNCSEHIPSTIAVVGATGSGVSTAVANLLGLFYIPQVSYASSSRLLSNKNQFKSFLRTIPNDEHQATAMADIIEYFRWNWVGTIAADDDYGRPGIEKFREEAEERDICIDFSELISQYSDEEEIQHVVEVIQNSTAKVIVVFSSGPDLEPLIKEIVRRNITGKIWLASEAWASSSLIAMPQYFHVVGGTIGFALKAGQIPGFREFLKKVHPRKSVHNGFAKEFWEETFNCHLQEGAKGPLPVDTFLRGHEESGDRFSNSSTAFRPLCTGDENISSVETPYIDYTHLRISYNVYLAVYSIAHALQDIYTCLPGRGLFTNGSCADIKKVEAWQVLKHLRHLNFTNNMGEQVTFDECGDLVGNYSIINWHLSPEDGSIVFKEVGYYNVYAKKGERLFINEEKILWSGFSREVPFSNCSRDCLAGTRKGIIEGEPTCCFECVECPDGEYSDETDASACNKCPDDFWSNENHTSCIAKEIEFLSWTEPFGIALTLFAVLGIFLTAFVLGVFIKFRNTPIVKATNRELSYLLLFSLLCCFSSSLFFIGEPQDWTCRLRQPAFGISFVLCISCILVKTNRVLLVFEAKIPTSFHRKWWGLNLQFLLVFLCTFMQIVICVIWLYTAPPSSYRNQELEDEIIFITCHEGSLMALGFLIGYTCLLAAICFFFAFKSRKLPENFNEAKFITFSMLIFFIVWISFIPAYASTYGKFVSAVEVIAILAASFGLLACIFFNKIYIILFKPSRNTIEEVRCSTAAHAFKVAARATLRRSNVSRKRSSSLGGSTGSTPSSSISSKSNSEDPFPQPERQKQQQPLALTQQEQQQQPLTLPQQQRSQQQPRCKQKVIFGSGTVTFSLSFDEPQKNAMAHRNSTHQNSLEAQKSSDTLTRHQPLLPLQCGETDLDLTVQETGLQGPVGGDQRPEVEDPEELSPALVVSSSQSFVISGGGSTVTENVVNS
Experimental: (§1) 293E Cells (EBNA1-expression HEK293 cells, ATCC No. CRL-10852) were cultivated in DMEM/Ham's-F12 (3.15/ml Glucose-containing Dulbecco's modified Eagle medium; available from NAKARAI TESK Company) containing 10% fetal calf serum in the presence of 200 μg/ml of G418 (available from Genetisine Company). The cultured cells were inoculated in F25 flask at a density of 3×10^6 cells/10 ml, then the content of the flask was allowed to stand for 24 hours in a CO2 incubator (5% CO2, 37° C.), and then the human CaSR-expression plasmid hCaSR/pcDNA3.1 was transfected using a transfection agent Fugene 6 (available from Roche Company). After allowing the flask to stand in a CO2 incubator for 6 to 7 hours, the cells were recovered using 10% fetal calf serum-containing DMEM/Ham's-F12 and then inoculated in each well of a poly-D-lysine coat 96-well plate (BD-Biocoat) at a density of 70,000 cells/well.
(§2) After allowing the well plate to stand in a CO2 incubator for 24 hours, the culture medium was removed from each well of the 96-well plate to which the cells had been inoculated, and a solution of Ca^2+ fluorescent indicator Calcium 4 Assay Kit (available from Molecular Devices Company) in an Assay Buffer (containing 146 mM of NaCl, 5 mM of KCl, 1 mM of MgSO4, 1 mg/ml of Glucose, 20 mM of HEPES (pH 7.2), and 0.75 to 1.25 mM of CaCl2) in an amount of 200 μl/well was added to each well, and each well was allowed to stand at 37° C. for one hour and then at room temperature for 10 minutes to thus make the cells take the indicator.
(§3) To each well of the 96-well plate, a solution of a test compound in a 0.1% BSA-containing Assay Buffer in an amount of 50 μl/well was added, and the wells were inspected for any change in the intensity of fluorescent light rays emitted therefrom for 3 minutes using FLEX Station (available from Molecular Devices Company).
(§4) Method for the Calculation of EC50
(§5) The difference (RFU (Max-Min) between the maximum and minimum intensities of fluorescent light rays observed before and after the addition of the test compound were calculated according to the automatic calculation by the FLEX Station. In this respect, the activity rate of a test compound was calculated, while the RFU (Max-Min) value observed when adding a test compound in a maximum concentration was defined to be 100% and the RFU (Max-Min) value observed when using a 0.1% BSA-containing Assay Buffer free of any added test compound was defined to be 0%, then the curve-fitting was carried out using a software Xfit for spreadsheet or a GraphPad Prism to thus determine each corresponding EC50 value as the concentration of each test compound observed at the activity rate of 50%.
as §1, with “plasmid:” for “plasmid”, “384-well” for “96-well”, “2×10^6” for “70,000”, “cells/well. […]” for “cells/well.”

human CaSR [5] = biological target: T2, human CaSR (Homo sapiens, UniProt P41180); assay: as above; type: cell-based; details: ratio to γ-Glu-Cys
T2 construct: expressed in transfected cells; host or cells: 293E cells (EBNA1-expression HEK293 cells, ATCC No. CRL-10852), transient transfection of hCaSR/pcDNA3.1
T2 sequence (P41180 20-1078 E1011Q): T1 sequence (P41180 20-1078 E1011Q)
Experimental: as §1, §2, §3, §4, §5
as §1, with “plasmid:” for “plasmid”, “384-well” for “96-well”, “2×10^6” for “70,000”, “cells/well. […]” for “cells/well.”

[6] = 0.01 g/dL, reference standard for the scoring
[7] = 0.001 g/dL in cow's milk (fat content 3.6%)
[8] = 0.001 g/dL in water with MSG 0.05, IMP 0.05, NaCl 0.5 g/dL
[9] = 0.001 g/dL in dried bonito extract 20.0 g/dL with common salt 0.5 g/dL
[10] = 0.0001 g/dL in cow's milk (fat content 3.6%)
[11] = 0.0005 g/dL in cow's milk (fat content 3.6%)
[12] = 0.0001 g/dL in water with MSG 0.05, IMP 0.05, NaCl 0.5 g/dL
[13] = 0.0005 g/dL in water with MSG 0.05, IMP 0.05, NaCl 0.5 g/dL
[14] = 0.0001 g/dL in dried bonito extract 20.0 g/dL with common salt 0.5 g/dL
[15] = 0.0005 g/dL in dried bonito extract 20.0 g/dL with common salt 0.5 g/dL

N[C@@H](CCC(=O)N[C@@H](CS)C(=O)NCC(=O)O)C(=O)O [γ-Glu-Cys-Gly, reference compound]
intensity of the kokumi, after taste (panelists [1]; [6]): 3.0
intensity of the kokumi, initial-middle taste (panelists [1]; [6]): 3.0
intensity of the kokumi, after taste (panelists [2]; [6]): 3.0
intensity of the kokumi, initial-middle taste (panelists [2]; [6]): 3.0
intensity of the kokumi, after taste (panelists [3]; [6]): 3.0
intensity of the kokumi, initial-middle taste (panelists [3]; [6]): 3.0

N[C@@H](CCC(=O)N[C@@H]1CSC[C@@H](C(=O)O)NC1=O)C(=O)O [Compound 8c]
EC50 (human CaSR [4]): 20 µM

N[C@@H](CCC(=O)NC1CCCC(C(=O)O)NC1=O)C(=O)O (stereo partly drawn) [Compound 35]
EC50 (human CaSR [4]): 0.199 µM

CC(C)[C@H](NC(=O)CC[C@H](N)C(=O)O)C(=O)NCC(=O)O [γ-Glu-Val-Gly, reference compound]
Comments for the Evaluation (panelists [1]; 0.001 g/dL in cow's milk): The thickness feeling of the cow's
Intensity of Kokumi After Taste (panelists [1]; [7]): 3.0
Intensity of Kokumi Initial-Middle Taste (panelists [1]; [7]): 2.5
Intensity of Kokumi After Taste (panelists [2]; [8]): 3.0
Intensity of Kokumi Initial-Middle Taste (panelists [2]; [8]): 2.5
Comments for the Evaluation (panelists [2]; 0.001 g/dL in water with MSG, IMP, NaCl): The kokumi is strengthened mainly
Intensity of Kokumi After Taste (panelists [3]; [9]): 3.0
Intensity of Kokumi Initial-Middle Taste (panelists [3]; [9]): 2.5
Comments for the Evaluation (panelists [3]; 0.001 g/dL in dried bonito extract solution): The fish meat taste of the dried

C[C@@H]1SC[C@H](NC(=O)CC[C@H](N)C(=O)O)C(=O)N[C@@H]1C(=O)O [Compound 29]
EC50 (human CaSR [4]): 0.58 µM

N[C@@H](CCC(=O)N[C@H]1CSC[C@H](C(=O)O)NC1=O)C(=O)O [Compound 8a]
EC50 (human CaSR [4]): 14.3 µM

N[C@@H](CCC(=O)N[C@H]1CSCCC(C(=O)O)NC1=O)C(=O)O (stereo partly drawn) [Compound 21]
EC50 (human CaSR [4]): 1.85 µM

N[C@@H](CCC(=O)N[C@@H]1CSC[C@H](C(=O)O)NC1=O)C(=O)O [Compound 8d]
EC50 (human CaSR [4]): 1.95 µM

N[C@@H](CCC(=O)N[C@H]1CSC[C@@H](C(=O)O)NC1=O)C(=O)O [Compound 8b]
CaSR agonist activity relative to that of γ-Glu-Cys (human CaSR [5]): about 9 times
EC50 (human CaSR [4]): 0.053 µM
Intensity of Kokumi After Taste (panelists [1]; [10]): 2.3
Intensity of Kokumi Initial-Middle Taste (panelists [1]; [10]): 2.4
kokumi-imparting activity (in words) (panelists [1]; 0.0001 to 0.0005 g/dL in cow's milk): showed its kokumi-imparting activity over the wide range of the foregoing added concentrations
Intensity of Kokumi After Taste (panelists [1]; [11]): 3.5
Intensity of Kokumi Initial-Middle Taste (panelists [1]; [11]): 3.5
Intensity of Kokumi After Taste (panelists [2]; [12]): 2.4
Intensity of Kokumi Initial-Middle Taste (panelists [2]; [12]): 2.3
kokumi-imparting activity (in words) (panelists [2]; 0.0001 to 0.0005 g/dL in water with MSG, IMP, NaCl): showed its kokumi-imparting activity over the wide range of the foregoing added concentrations
Intensity of Kokumi After Taste (panelists [2]; [13]): 3.5
Intensity of Kokumi Initial-Middle Taste (panelists [2]; [13]): 3.4
Intensity of Kokumi After Taste (panelists [3]; [14]): 2.5
Intensity of Kokumi Initial-Middle Taste (panelists [3]; [14]): 2.3
kokumi-imparting activity (in words) (panelists [3]; 0.0001 to 0.0005 g/dL in dried bonito extract solution): showed its kokumi-imparting activity over the wide range of the foregoing added concentrations
Intensity of Kokumi After Taste (panelists [3]; [15]): 3.7
Intensity of Kokumi Initial-Middle Taste (panelists [3]; [15]): 3.5

N[C@@H](CCC(=O)N[C@@H](CS)C(=O)O)C(=O)O [γ-Glu-Cys, reference compound]
EC50 (human CaSR [4]): 0.46 µM
